# Values of other authors in patent US20090104212A1, “METHODS AND SYSTEMS FOR TREATING CELL PROLIFERATION DISORDERS USING TWO-PHOTON SIMULTANEOUS ABSORPTION” (Immunolight, priority 2007, published 2009).
# Read-outs that look alike come from different tables or passages of the source. Non-standard residues stand in square brackets, D forms with d. Residues, ends and D or L forms follow the SMILES beside them. Bpa = N[CH](Cc1ccc(C(=O)c2ccccc2)cc1)C(=O)O; 2Nal = N[CH](Cc1ccc2ccccc2c1)C(=O)O; Aib = CC(C)(N)C(=O)O
# Assays:
# [1] = for kSET (Average): average over Λex 224, 266, 280 nm
# tumors = conditions: in vivo
Compound,kSET (Average) [1],ESSET ([1]; Λex 224 nm),kSET ([1]; Λex 224 nm),ESSET ([1]; Λex 266 nm),kSET ([1]; Λex 266 nm),ESSET ([1]; Λex 280 nm),kSET ([1]; Λex 280 nm),duration of skin photosensitivity (clinical use),Length of photosensitization (in vivo),selectivity for tumors compared to normal tissues (tumors)
CC1NC(=O)C(C)(C)NC(=O)C(Cc2ccc(C(=O)c3ccccc3)cc2)NC(=O)C(C)(C)NC(=O)C(C)NC(=O)C(C)(C)NC(=O)C(Cc2ccc3ccccc3c2)NC(=O)C(C)(C)NC1=O (centres unmarked) [Compound 1A] (cyclo([Aib][2Nal][Aib]A[Aib][Bpa][Aib]A); configuration not given here),3.67e+07 s⁻¹,80,3.8e+07 s⁻¹,79,3.6e+07 s⁻¹,79,3.6e+07 s⁻¹,–,–,–
"CC(=O)[O-].CC(=O)[O-].CCc1c(CC)c2cc3nc(cnc4cc(OCCOCCOCCOC)c(OCCOCCOCCOC)cc4ncc4nc(cc1[n-]2)C(CCCO)=C4C)C(C)=C3CCCO.O.[Lu+3] [Lutetium texahyrin, Motexafin lutetium]",–,–,–,–,–,–,–,24 to 48 h,24 to 48 h,one of the greatest reported selectivities for tumors
CC(NC(=O)C(C)(C)NC(=O)C(Cc1ccc(C(=O)c2ccccc2)cc1)NC(=O)C(C)(C)NC(=O)C(C)NC(=O)C(C)(C)NC(=O)C(Cc1ccc2ccccc2c1)NC(=O)C(C)(C)N)C(=O)O (centres unmarked) [Compound 1B] (H-[Aib][2Nal][Aib]A[Aib][Bpa][Aib]A-OH; configuration not given here),–,96.3,2.44e+08 s⁻¹,95,1.8e+08 s⁻¹,94,1.36e+08 s⁻¹,–,–,–
"CC(NC(=O)C(C)(C)NC(=O)C(Cc1ccc(C(=O)c2ccccc2)cc1)NC(=O)C(C)(C)NC(=O)C(Cc1ccc2ccccc2c1)NC(=O)C(C)(C)NC(=O)C(C)NC(=O)C(C)(C)N)C(=O)O (single isomer, unassigned) [Compound 2B]",3.9e+07 s⁻¹,77,3.1e+07 s⁻¹,81,3.9e+07 s⁻¹,83,4.7e+07 s⁻¹,–,–,–
